Laboratory results reported in patent publication US20240124504A1, “AROMATIC HETEROCYCLIC COMPOUND, AND PHARMACEUTICAL COMPOSITION AND APPLICATION THEREOF” (GT APEIRON THERAPEUTICS LIMITED, priority 2020, published 2024).

Experiments:
[1] = test system: human breast cancer cells HCC70; assay: Cell biological activity detection (CyQuant, 72 hours), HCC70; format: cell-based; settings: Homo sapiens, HCC70, 72 h, incubation for 72 hours
Outline: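 IC50 derived from CyQuant Direct nuclear staining (488 nm excitation) after 72 h compound exposure at 37 °C, 5% CO2. Compounds tested in 9 concentrations from 10 μM, 1:4 steps, 0.2% DMSO, on A2780 or HCC70 cells plated overnight at 2000/well in RPMI 1640 + 10% FBS.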

[2] = Caco-2 membrane permeability and efflux rate; format: in vitro ADME; settings: human, Caco-2, Caco-2, 5 μM; for Papp B→A at 2 h, 5 μM: basal end to top end; for efflux ratio at 2 h, 5 μM: read-out: ER (efflux rate); for Papp A→B at 2 h, 5 μM: top end to basal end
Method: The recovered Caco-2 cell suspension was seeded into a […] plate and cultured for 14-18 days. After being cultured for 14 days, the cells were fused and differentiated to be ready for a transport experiment. The Caco-2 cell plate was taken out from the incubator. Stock solutions of a to-be-tested compound and a control compound were formulated with DMSO and diluted with an HBSS (10 mM HEPES, pH 7.4) buffer to a final concentration of 5 μM. A test compound solution and a control drug solution were added to each well (top end) of an insert culture plate, and the HBSS (10 mM HEPES, pH 7.4) buffer was added to each well of a test compound receiving plate (basal end). When measuring the transport rate of the compound from the basal end to the top end, the test compound solution and the control drug solution were added to each well of the receiving plate (basal end), the HBSS (10 mM HEPES, pH 7.4) buffer solution was added to each well (top end) of the insert culture plate for the test compound solution, and incubation was carried out for 2 hours in a CO2 incubator at 37° C. After the transport experiment was completed, vortexing was carried out for 10 minutes at 1000 rpm. After sample quenching at each time point, LC/MS/MS analysis was carried out. A fluorescence value was measured after a two-hour transport experiment, a lucifer yellow solution was added in a transwell chamber (top end), a transport buffer solution was added in the basal end, and incubation was carried out for 30 minutes in the CO2 incubator at 37° C. The solution was taken out directly from the top end and the basal end (using basolateral wells) and transferred to a new 96-well plate. A cell fluorescence value was measured by a microplate reader (to detect membrane integrity), an excitation wavelength was […], and an emission wavelength was […]. All data were calculated by using Microsoft Excel, and a peak area was calculated according to chromatograms. An apparent permeability coefficient (Papp, unit: 10-6, cm/s) and an efflux rate (ER) of the compounds in Caco-2 cells were calculated by the specific concentrations of a receiving end and an administering end.

CDK9/cyclinT1 complex = CDK9/cyclinT1 complex (Homo sapiens, UniProt P50750); assay: In-vitro enzymatic inhibitory activity testing, CDK9 inhibition assay (Caliper EZ Reader II); format: biochemical; settings: CDK9/cyclinT1 8 nM, 180 min at 27° C.
Outline: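 Phosphorylated and unphosphorylated fluorescent peptide were resolved by mobility-shift electrophoresis, with IC50 taken from a nonlinear regression of dose-response data. Reactions ran 180 min at 27 °C in MES buffer pH 6.5 with MgCl2, after 10 min enzyme–compound preincubation, using 8 nM CDK9/cyclinT1 and 5-FAM-CDK9tide.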

CDK9/cyclinT1 complex, sequence (P50750 whole entry, species assumed): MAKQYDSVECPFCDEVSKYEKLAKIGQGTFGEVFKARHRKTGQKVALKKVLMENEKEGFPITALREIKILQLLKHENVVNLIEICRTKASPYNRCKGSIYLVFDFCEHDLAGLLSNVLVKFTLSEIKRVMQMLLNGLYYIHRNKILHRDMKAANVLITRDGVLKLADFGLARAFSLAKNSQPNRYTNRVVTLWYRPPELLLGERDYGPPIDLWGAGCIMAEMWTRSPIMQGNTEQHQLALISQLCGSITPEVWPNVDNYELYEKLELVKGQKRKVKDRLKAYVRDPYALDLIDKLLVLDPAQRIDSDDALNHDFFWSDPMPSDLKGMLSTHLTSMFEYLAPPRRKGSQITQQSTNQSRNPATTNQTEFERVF
CDK9/cyclinT1 complex, sequence (O60563 whole entry partner, species assumed): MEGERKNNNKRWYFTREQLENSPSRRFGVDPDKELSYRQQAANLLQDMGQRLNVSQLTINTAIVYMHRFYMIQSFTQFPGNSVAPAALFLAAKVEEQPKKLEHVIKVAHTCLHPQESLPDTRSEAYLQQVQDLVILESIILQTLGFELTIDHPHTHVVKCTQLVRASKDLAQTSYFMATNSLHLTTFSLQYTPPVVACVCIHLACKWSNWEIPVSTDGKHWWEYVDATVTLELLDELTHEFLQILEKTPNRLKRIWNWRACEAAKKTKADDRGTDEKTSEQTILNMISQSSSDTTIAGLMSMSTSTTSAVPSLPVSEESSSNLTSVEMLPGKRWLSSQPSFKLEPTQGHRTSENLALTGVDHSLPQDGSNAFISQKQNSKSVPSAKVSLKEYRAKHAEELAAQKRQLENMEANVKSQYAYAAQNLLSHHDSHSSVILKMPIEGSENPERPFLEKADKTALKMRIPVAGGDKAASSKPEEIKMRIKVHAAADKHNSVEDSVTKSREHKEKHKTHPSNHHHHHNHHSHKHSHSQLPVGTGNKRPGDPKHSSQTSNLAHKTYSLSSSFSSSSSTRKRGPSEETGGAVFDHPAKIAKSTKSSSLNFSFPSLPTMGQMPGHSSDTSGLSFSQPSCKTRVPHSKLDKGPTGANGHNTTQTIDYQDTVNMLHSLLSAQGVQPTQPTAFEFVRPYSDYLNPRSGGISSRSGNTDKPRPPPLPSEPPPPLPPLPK

SMILES	Papp B→A at 2 h, 5 μM [2]	efflux ratio at 2 h, 5 μM [2]	Papp A→B at 2 h, 5 μM [2]	IC50 (CDK9/cyclinT1 complex)	IC50 [1]
CP(C)(=O)c1cccc2c(-c3nc(NC[C@H](F)CO)ncc3C(F)(F)F)c[nH]c12 [Compound 86, (S)-(3-(2-((2-fluoro-3-hydroxypropyl)amino)-5-(trifluoromethyl)pyrimidin-4-yl)-1H-indole-7-yl)dimethylphosphine oxide]	29.5 ×10⁻⁶ cm/s	20.5	1.44 ×10⁻⁶ cm/s	> 50000 nM	20 to 200 nM
CP(C)(=O)c1cccc2c(-c3nc(N[C@H]4COC[C@@H]4O)ncc3C(F)(F)F)c[nH]c12 [Compound 87]	25.1 ×10⁻⁶ cm/s	37.1	0.68 ×10⁻⁶ cm/s	> 50000 nM	< 20 nM
CP(C)(=O)c1cccc2c(-c3nc(NCCCO)ncc3C(F)(F)F)c[nH]c12 [Compound 89, (3-(2-((3-hydroxypropyl)amino)-5-(trifluoromethyl)pyrimidin-4-yl)-1H-indole-7-yl)dimethylphosphine oxide]	30.6 ×10⁻⁶ cm/s	14.3	2.13 ×10⁻⁶ cm/s	> 50000 nM	< 20 nM
CP(C)(=O)c1cccc2c(-c3nc(NC4(CO)CC4)ncc3C(F)(F)F)c[nH]c12 [Compound 94, (3-(2-((1-(hydroxymethyl)cyclopropyl)amino)-5-(trifluoromethyl)pyrimidin-4-yl)-1H-indole-7-yl)dimethylphosphine oxide]	31.4 ×10⁻⁶ cm/s	12.5	2.51 ×10⁻⁶ cm/s	> 50000 nM	20 to 200 nM
CP(C)(=O)c1cccc2c(-c3nc(NCCO)ncc3C(F)(F)F)c[nH]c12 [Compound 97, (3-(2-((2-hydroxyethyl)amino)-5-(trifluoromethyl)pyrimidin-4-yl)-1H-indole-7-yl)dimethylphosphine oxide]	32.3 ×10⁻⁶ cm/s	20.8	1.55 ×10⁻⁶ cm/s	> 50000 nM	20 to 200 nM
C[C@@H](CO)Nc1ncc(Cl)c(-c2c[nH]c3c(P(C)(C)=O)cccc23)n1 [Compound 103, (S)-(3-(5-chloro-2-((1-hydroxypropan-2-yl)amino)pyrimidin-4-yl)-1H-indole-7-yl)dimethylphosphine oxide]	36.1 ×10⁻⁶ cm/s	5.38	6.7 ×10⁻⁶ cm/s	> 50000 nM	20 to 200 nM
CN(C)[C@H]1CC[C@H](Nc2ncc(C(F)(F)F)c(-c3c[nH]c4c(P(C)(C)=O)cccc34)n2)C1 [Compound 137, (3-(2-(((1S,3S)-3-(dimethylamino)cyclopentyl)amino)-5-(trifluoromethyl)pyrimidin-4-yl)-1H-indole-7-yl)dimethylphosphine oxide]	34.6 ×10⁻⁶ cm/s	12.4	2.79 ×10⁻⁶ cm/s	5000 to 50000 nM	< 20 nM
CP(C)(=O)c1cccc2c(-c3nc(N[C@H]4CCC[C@@H]4O)ncc3C(F)(F)F)c[nH]c12 [Compound 155, (3-(2-(((1S,2S)-2-hydroxycyclopentyl)amino)-5-(trifluoromethyl)pyrimidin-4-yl)-1hydro-indole-7-yl)dimethylphosphine oxide]	24 ×10⁻⁶ cm/s	4.31	5.57 ×10⁻⁶ cm/s	5000 to 50000 nM	< 20 nM

Now from value to molecule, other results behind:

Papp B→A at 2 h, 5 μM [2]	efflux ratio at 2 h, 5 μM [2]	Papp A→B at 2 h, 5 μM [2]	IC50 (CDK9/cyclinT1 complex)	SMILES	IC50 [1]
29.2 ×10⁻⁶ cm/s	7.77	3.76 ×10⁻⁶ cm/s	> 50000 nM	CC[C@@H](CO)Nc1ncc(C(F)(F)F)c(-c2c[nH]c3c(P(C)(C)=O)cccc23)n1 [Compound 88, (S)-(3-(2-((1-hydroxybutan-2-yl)amino)-5-(trifluoromethyl)pyrimidin-4-yl)-1H-indole-7-yl)dimethylphosphine oxide]	20 to 200 nM
27 ×10⁻⁶ cm/s	7.64	3.53 ×10⁻⁶ cm/s	> 50000 nM	C[C@H](CO)Nc1ncc(C(F)(F)F)c(-c2c[nH]c3c(P(C)(C)=O)cccc23)n1 [Compound 93, (R)-(3-(2-((1-hydroxypropyl-2-yl)amino)-5-(trifluoromethyl)pyrimidin-4-yl)-1H-indole-7-yl)dimethylphosphine oxide]	< 20 nM
26.1 ×10⁻⁶ cm/s	14.1	1.86 ×10⁻⁶ cm/s	> 50000 nM	CP(C)(=O)c1cccc2c(-c3nc(NC4(CO)CC(F)(F)C4)ncc3C(F)(F)F)c[nH]c12 [Compound 96, (3-(2-((3,3-difluoro-1-(hydroxymethyl)cyclobutyl)amino)-5-(trifluoromethyl)pyrimidin-4-yl)-1H-indole-7-yl)dimethylphosphine oxide]	< 20 nM
26.8 ×10⁻⁶ cm/s	7.8	3.43 ×10⁻⁶ cm/s	> 50000 nM	CP(C)(=O)c1cccc2c(-c3nc(NCC(F)(F)CO)ncc3C(F)(F)F)c[nH]c12 [Compound 102, (3-(2-((2,2-difluoro-3-hydroxypropyl)amino)-5-(trifluoromethyl)pyrimidin-4-yl)-1H-indole-7-yl)dimethylphosphine oxide]	< 20 nM
21.9 ×10⁻⁶ cm/s	7.32	2.99 ×10⁻⁶ cm/s	> 50000 nM	CP(C)(=O)c1cccc2c(-c3nc(NC4(CO)CC(F)C4)ncc3C(F)(F)F)c[nH]c12 (stereo not shown) [Compound 105, (3-(2-((3-fluoro-1-(hydroxymethyl)cyclobutyl)amino)-5-(trifluoromethyl)pyrimidin-4-yl)-1H-indole-7-yl)dimethylphosphine oxide]	20 to 200 nM
25.4 ×10⁻⁶ cm/s	31.9	0.8 ×10⁻⁶ cm/s	> 50000 nM	CP(C)(=O)c1cccc2c(-c3nc(NC4(CO)COC4)ncc3C(F)(F)F)c[nH]c12 [Compound 114, (3-(2-((3-(hydroxymethyl)oxetan-3-yl)amino)-5-(trifluoromethyl)pyrimidin-4-yl)-1H-indole-7-yl)dimethylphosphine oxide]	< 20 nM
24.6 ×10⁻⁶ cm/s	7.41	3.32 ×10⁻⁶ cm/s	> 50000 nM	CP(C)(=O)c1cccc2c(-c3nc(NCC4CC(O)C4)ncc3C(F)(F)F)c[nH]c12 (stereo not shown) [Compound 126, (3-(2-(((3-hydroxycyclobutyl)methyl)amino)-5-(trifluoromethyl)pyrimidin-4-yl)-1H-indole-7-yl)dimethylphosphine oxide]	20 to 200 nM
22.4 ×10⁻⁶ cm/s	5.86	3.82 ×10⁻⁶ cm/s	> 50000 nM	CP(C)(=O)c1cccc2c(-c3nc(NC[C@H]4C[C@](C)(O)C4)ncc3C(F)(F)F)c[nH]c12 [Compound 127, (3-(2-(((trans-3-hydroxy-3-methylcyclobutyl)methyl)amino)-5-(trifluoromethyl)pyrimidin-4-yl)-1H-indole-7-yl)dimethylphosphine oxide]	< 20 nM
24.8 ×10⁻⁶ cm/s	5.94	4.17 ×10⁻⁶ cm/s	> 50000 nM	CP(C)(=O)c1cccc2c(-c3nc(N[C@@H]4CC[C@H]4O)ncc3C(F)(F)F)c[nH]c12 [Compound 153, (3-(2-(((1R,2R)-2-hydroxycyclobutyl)amino)-5-(trifluoromethyl)pyrimidin-4-yl)-1hydro-indole-7-yl)dimethylphosphine oxide]	< 20 nM
26.4 ×10⁻⁶ cm/s	5.97	4.42 ×10⁻⁶ cm/s	5000 to 50000 nM	CP(C)(=O)c1cccc2c(-c3nc(N[C@H]4CC[C@@H]4O)ncc3C(F)(F)F)c[nH]c12 [Compound 154, (3-(2-(((1S,2S)-2-hydroxycyclobutyl)amino)-5-(trifluoromethyl)pyrimidin-4-yl)-1hydro-indole-7-yl)dimethylphosphine oxide]	< 20 nM
20.6 ×10⁻⁶ cm/s	3.87	5.32 ×10⁻⁶ cm/s	5000 to 50000 nM	CP(C)(=O)c1cccc2c(-c3nc(N[C@@H]4CCC[C@H]4O)ncc3C(F)(F)F)c[nH]c12 [Compound 156]	< 20 nM
28.6 ×10⁻⁶ cm/s	5.65	5.07 ×10⁻⁶ cm/s	> 50000 nM	C[C@@H](CO)Nc1ncc(C(F)(F)F)c(-c2c[nH]c3c(P(C)(C)=O)cc(F)cc23)n1 [Compound 158]	< 20 nM
